Data from patent US20120034613A1, “Apparatus and Method for Testing Relationships Between Gene Expression and Physical Appearance of Skin” (NSE Products, Inc., priority 2010, published 2012).

Tested on: EpidermFT™ Skin Model (EFT-400) full thickness skin cultures
Assay: Affymetrix GeneChip HG U133 Plus 2.0 microarray global gene expression, agent-exposed vs untreated skin cultures
Assay type: cell-based, human
Details: Salicin 0.5%, 24 hr
[1] = 219471_at C13orf18 /// LOC728970

In the case of `OCc1ccccc1O[C@@H]1O[C@H](CO)[C@@H](O)[C@H](O)[C@H]1O` [Salicin, 2-(Hydroxymethyl)phenyl β-D-glucospyranoside], the Direction (215997_s_at CUL4B) is reported as “up”, the Fold change (215997_s_at CUL4B) is reported as 2.138 and the Direction (217202_s_at GLUL) is reported as “up”. For the same compound, the Fold change (217202_s_at GLUL) was 2.106, the Direction (217739_s_at NAMPT) was “up” and the Fold change (217739_s_at NAMPT) was 2.155. For the same compound, the Direction (218574_s_at LMCD1) was “up”, the Fold change (218574_s_at LMCD1) was 2.123 and the Direction (218665_at FZD4) was “up”. For the same compound, the Fold change (218665_at FZD4) was 2.078, the Direction (218810_at ZC3H12A) was “up” and the Fold change (218810_at ZC3H12A) was 2.117. The Direction (219054_at C5orf23) was “up”, the Fold change (219054_at C5orf23) was 2.096 and the Direction (219283_at C1GALT1C1) was “up”. The Fold change (219283_at C1GALT1C1) was 2.107, the Direction (219284_at HSPBAP1) was “up” and the Fold change (219284_at HSPBAP1) was 2.08. For the same compound, the Direction [1] was “up”, the Fold change [1] was 2.12 and the Direction (219558_at ATP13A3) was “up”. The Fold change (219558_at ATP13A3) was 2.138, the Direction (219774_at CCDC93) was “up” and the Fold change (219774_at CCDC93) was 2.13. For the same compound, the Direction (219790_s_at NPR3) was “up”, the Fold change (219790_s_at NPR3) was 2.115 and the Direction (220253_s_at LRP12) was “up”. For the same compound, the Fold change (220253_s_at LRP12) was 2.096, the Direction (221586_s_at E2F5) was “up” and the Fold change (221586_s_at E2F5) was 2.079. The Direction (221881_s_at CLIC4) was “up”, the Fold change (221881_s_at CLIC4) was 2.109 and the Direction (223758_s_at GTF2H2) was “up”. For the same compound, the Fold change (223758_s_at GTF2H2) was 2.138, the Direction (224461_s_at AIFM2) was “up” and the Fold change (224461_s_at AIFM2) was 2.132. The Direction (224583_at COTL1) was “up”, the Fold change (224583_at COTL1) was 2.077 and the Direction (224978_s_at USP36) was “up”. For the same compound, the Fold change (224978_s_at USP36) was 2.122, the Direction (225034_at ST3GAL1) was “up” and the Fold change (225034_at ST3GAL1) was 2.099. The Direction (225185_at MRAS) was “up”, the Fold change (225185_at MRAS) was 2.155 and the Direction (225212_at SLC25A25) was “up”. For the same compound, the Fold change (225212_at SLC25A25) was 2.108, the Direction (225436_at FAM108C1) was “up” and the Fold change (225436_at FAM108C1) was 2.142. The Direction (225590_at SH3RF1) was “up”, the Fold change (225590_at SH3RF1) was 2.104 and the Direction (225871_at STEAP2) was “up”. The Fold change (225871_at STEAP2) was 2.153, the Direction (226136_at GLIPR1) was “up” and the Fold change (226136_at GLIPR1) was 2.104. The Direction (226142_at GLIPR1) was “up”, the Fold change (226142_at GLIPR1) was 2.129 and the Direction (226160_at H6PD) was “up”. For the same compound, the Fold change (226160_at H6PD) was 2.103, the Direction (226731_at PELO) was “up” and the Fold change (226731_at PELO) was 2.098. For the same compound, the Direction (226800_at EFCAB7) was “up”, the Fold change (226800_at EFCAB7) was 2.156 and the Direction (228082_at ASAM) was “up”. The Fold change (228082_at ASAM) was 2.108, the Direction (228702_at FLJ43663) was “up” and the Fold change (228702_at FLJ43663) was 2.156. The Direction (228949_at GPR177) was “up”, the Fold change (228949_at GPR177) was 2.105 and the Direction (228950_s_at GPR177) was “up”. The Fold change (228950_s_at GPR177) was 2.126, the Direction (229194_at PCGF5) was “up” and the Fold change (229194_at PCGF5) was 2.107. The Direction (229306_at FAM148B) was “up”, the Fold change (229306_at FAM148B) was 2.129 and the Direction (229414_at PITPNC1) was “up”. The Fold change (229414_at PITPNC1) was 2.108, the Direction (229553_at PGM2L1) was “up” and the Fold change (229553_at PGM2L1) was 2.113. The Direction (229623_at FLJ12993) was “up”, the Fold change (229623_at FLJ12993) was 2.132 and the Direction (230291_s_at NFIB) was “up”. For the same compound, the Fold change (230291_s_at NFIB) was 2.15, the Direction (232004_at HNRNPR) was “up” and the Fold change (232004_at HNRNPR) was 2.126. The Direction (232267_at GPR133) was “up”, the Fold change (232267_at GPR133) was 2.135 and the Direction (232311_at B2M) was “up”. For the same compound, the Fold change (232311_at B2M) was 2.121, the Direction (235019_at CPM) was “up” and the Fold change (235019_at CPM) was 2.117. For the same compound, the Direction (235182_at ISM1) was “up”, the Fold change (235182_at ISM1) was 2.138 and the Direction (235311_at FKBP14) was “up”. For the same compound, the Fold change (235311_at FKBP14) was 2.153, the Direction (236154_at QKI) was “up” and the Fold change (236154_at QKI) was 2.103. The Direction (238893_at LOC338758) was “up”, the Fold change (238893_at LOC338758) was 2.075 and the Direction (239108_at FAR2) was “up”. For the same compound, the Fold change (239108_at FAR2) was 2.081, the Direction (239415_at MAP9) was “up” and the Fold change (239415_at MAP9) was 2.126. The Direction (240395_at LOC100128727) was “up”, the Fold change (240395_at LOC100128727) was 2.078 and the Direction (241986_at BMPER) was “up”. The Fold change (241986_at BMPER) was 2.136, the Direction (243631_at LOC727815) was “up” and the Fold change (243631_at LOC727815) was 2.087. The Direction (243797_at STK17B) was “up”, the Fold change (243797_at STK17B) was 2.09 and the Direction (244752_at ZNF438) was “up”. The Fold change (244752_at ZNF438) was 2.083, the Direction (1553962_s_at RHOB) was “up” and the Fold change (1553962_s_at RHOB) was 2.094.
